Tests used:
[1] = tested on: MV4-11 cells; experiment: MV4-11 Cell Cytotoxicity Assay (CellTiter-Blue, 72 h); assay type: cell-based, human; conditions: Homo sapiens, MV4-11; MV-4-11 cells
Procedure, shortened: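 Cells seeded 24 h before treatment, then exposed 72 h at 37° C, 5% CO2 to inhibitors in triplicate, top concentration 50 μM with 1:2 serial dilutions (0.5% DMSO vehicle). Viability read by CellTiter-Blue fluorescence at 560/590 nm after 1 h.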

[2] = tested on: normal human fibroblast (NHF) cells; experiment: NHF Cell Cytotoxicity Assay (CellTiter-Blue, 72 h), off-target effects; assay type: cell-based; conditions: Homo sapiens, Fibroblast; pooled NHF cells
Protocol: In some embodiments, the off-target effects of the compounds are evaluated in healthy human cells, such as in a normal human fibroblast (NHF) cell cytotoxicity assay.
Cell viability was examined following treatment at various concentrations of inhibitor (0.097656-50 μM) using a cell Titer-Blue cell viability assay. 1×10^4 normal human fibroblast cells per well were plated in 96-well assay plates in culture medium. All cells are grown in DMEM, IMDM and RPMI-1640 were supplemented with 10% FBS. After 24 hours, test compounds and vehicle controls are added to appropriate wells so the final volume was 100 μl in each well. The cells are cultured for the desired test exposure period (72 hours) at 37° C. and 5% CO2. The assay plates are removed from 37° C. incubator and 20 μL/well of CellTiter-Blue® Reagent is added. The plates are incubated using standard cell culture conditions for 1-4 hours and the plates are shaken for 10 seconds and record fluorescence at 560/590nm. For each sample well, value is normalized between the DMSO control and the highest concentration in case of plateau, and converted into a percentage. In the absence of plateau, minimum lecture is obtained from a different sample within the same experiment. For each concentration, the four replicates are averaged and standard deviation calculated. Data is fitted to a log(inhibitor) vs response curve with variable slope model using Microsoft Excel, obtaining IC50 and Hill slope variables.
A person skilled in the art would appreciate that a higher IC50 value in this NHF assay can indicate lower off-target effects.

[3] = tested on: glutathione (GSH); experiment: Reactivity Profiling with Glutathione (GSH), half-life by HPLC; conditions: 5 mM glutathione (GSH) in IMDM with 10% FBS

Row | SMILES | IC50 [1] | IC50 [2] | half-life at 25 μM [3]
1 | CC(C)(C)c1cc(CN(C(=O)CN(Cc2ncccc2C(F)(F)F)S(=O)(=O)c2c(F)c(F)c(F)c(F)c2F)c2ccc(C(=O)O)cc2OC2CC2)cc(C2CC2)c1 [Compound 1119, 4-(N-(3-(tert-butyl)-5-cyclopropylbenzyl)-2-(N-((3-(trifluoromethyl)pyridin-2-yl)methyl)-(2,3,4,5,6-pentafluoro-phenyl)sulfonamido)acetamido)-3-cyclopropoxybenzoic acid] | 316 to 1000 nM | 30000 to 100000 nM | 4.12 to 9.23 h
2 | CC(C)(C)c1cc(CN(C(=O)CN(Cc2c(F)cc(F)cc2F)S(=O)(=O)c2c(F)c(F)c(F)c(F)c2F)c2ccc(C(=O)O)cc2OC2CC2)cc(C2CC2)c1 [Compound 1122, 4-(N-(3-(tert-butyl)-5-cyclopropylbenzyl)-2-(N-(2,4,6-trifluorobenzyl)-(2,3,4,5,6-pentafluoro-phenyl)sulfonamido)acetamido)-3-cyclopropoxybenzoic acid] | 0.01 to 316 nM | 10000 to 20000 nM | 9.23 to 1670 h
3 | CC(C)(C)c1cc(CN(C(=O)CN(Cc2c(F)cc(F)cc2F)S(=O)(=O)c2c(F)c(F)c(F)c(F)c2F)c2ccc(C(=O)O)cc2C2CC2)cc(C2CC2)c1 [Compound 1123, 4-(N-(3-(tert-butyl)-5-cyclopropylbenzyl)-2-(N-(2,4,6-trifluorobenzyl)-(2,3,4,5,6-pentafluoro-phenyl)sulfonamido)acetamido)-3-cyclopropylbenzoic acid] | 0.01 to 316 nM | 1 to 10000 nM | 9.23 to 1670 h
4 | O=C(O)c1ccc(N(Cc2cc(C3CC3)cc(C3CC3)c2)C(=O)CN(Cc2ccccc2C(F)(F)F)S(=O)(=O)c2c(F)c(F)c(F)c(F)c2F)c(OC2CC2)c1 [Compound 1141] | 0.01 to 316 nM | 20000 to 30000 nM | 4.12 to 9.23 h
5 | CC(C)(C)c1cc(CN(C(=O)CN(Cc2cnccc2C(F)(F)F)S(=O)(=O)c2c(F)c(F)c(F)c(F)c2F)c2ccc(C(=O)O)cc2OC2CC2)cc(C2CC2)c1 [Compound 1142, 4-(N-(3-(tert-butyl)-5-cyclopropylbenzyl)-2-(N-((4-(trifluoromethyl)pyridin-3-yl)methyl)-(2,3,4,5,6-pentafluoro-phenyl)sulfonamido)acetamido)-3-cyclopropoxybenzoic acid] | 0.01 to 316 nM | 20000 to 30000 nM | 4.12 to 9.23 h
6 | COc1cc(C(=O)O)ccc1N(Cc1cc(C2CC2)cc(C(C)(C)C)c1)C(=O)CN(Cc1ccc(F)cc1Cl)S(=O)(=O)c1c(F)c(F)c(F)c(F)c1F [Compound 1143, 4-(N-(3-(tert-butyl)-5-cyclopropylbenzyl)-2-(N-(2-chloro-4-fluorobenzyl)-(2,3,4,5,6-pentafluorophenyl)sulfon-amido)acetamido)-3-methoxybenzoic acid] | 0.01 to 316 nM | 10000 to 20000 nM | 4.12 to 9.23 h
7 | COc1cc(C(=O)O)ccc1N(Cc1cc(C2CC2)cc(C(C)(C)C)c1)C(=O)CN(Cc1c(F)cccc1F)S(=O)(=O)c1c(F)c(F)c(F)c(F)c1F [Compound 1145, 4-(N-(3-(tert-butyl)-5-cyclopropylbenzyl)-2-(N-(2,6-difluorobenzyl)-(2,3,4,5,6-pentafluorophenyl)sulfon-amido)acetamido)-3-methoxybenzoic acid] | 0.01 to 316 nM | 1 to 10000 nM | 2.37 to 4.12 h
8 | COc1cc(C(=O)O)ccc1N(Cc1cc(C2CC2)cc(C2CC2)c1)C(=O)CN(Cc1cnccc1C(F)(F)F)S(=O)(=O)c1c(F)c(F)c(F)c(F)c1F [Compound 1146, 4-(N-(3,5-dicyclopropylbenzyl)-2-(N-((4-(trifluoromethyl)pyridin-3-yl)methyl)-(2,3,4,5,6-pentafluoro-phenyl)sulfonamido)acetamido)-3-methoxybenzoic acid] | 316 to 1000 nM | 1 to 10000 nM | 0.00167 to 2.37 h
9 | COc1cc(C(=O)O)ccc1N(Cc1cc(C2CC2)cc(C2CC2)c1)C(=O)CN(Cc1c(F)cc(F)cc1F)S(=O)(=O)c1c(F)c(F)c(F)c(F)c1F [Compound 1148, 4-(N-(3,5-dicyclopropylbenzyl)-2-(N-(2,4,6-trifluorobenzyl)-(2,3,4,5,6-pentafluoro-phenyl)sulfonamido)acetamido)-3-methoxybenzoic acid] | 0.01 to 316 nM | 1 to 10000 nM | 2.37 to 4.12 h
10 | O=C(O)c1ccc(N(Cc2cc(C3CC3)cc(C3CC3)c2)C(=O)CN(Cc2ncccc2C(F)(F)F)S(=O)(=O)c2c(F)c(F)c(F)c(F)c2F)c(OC2CC2)c1 [Compound 1164, 3-cyclopropoxy-4-(N-(3,5-dicyclopropylbenzyl)-2-(N-((3-(trifluoromethyl)pyridin-2-yl)methyl)-(2,3,4,5,6-pentafluoro-phenyl)sulfonamido)acetamido)benzoic acid] | 316 to 1000 nM | 20000 to 30000 nM | 4.12 to 9.23 h
11 | COc1cc(C(=O)O)ccc1N(Cc1cc(C2CC2)cc(C2CC2)c1)C(=O)CN(Cc1ccc(F)cc1Cl)S(=O)(=O)c1c(F)c(F)c(F)c(F)c1F [Compound 1166, 4-(2-(N-(2-chloro-4-fluorobenzyl)-(2,3,4,5,6-pentafluorophenyl)sulfon-amido)-N-(3,5-dicyclopropylbenzyl)acetamido)-3-methoxybenzoic acid] | 0.01 to 316 nM | 1 to 10000 nM | 2.37 to 4.12 h
12 | O=C(O)c1ccc(N(Cc2cc(C3CC3)cc(C3CC3)c2)C(=O)CN(Cc2ccc(F)cc2Cl)S(=O)(=O)c2c(F)c(F)c(F)c(F)c2F)c(OC2CC2)c1 [Compound 1167, 4-(2-(N-(2-chloro-4-fluorobenzyl)-(2,3,4,5,6-pentafluorophenyl)sulfon-amido)-N-(3,5-dicyclopropylbenzyl)acetamido)-3-cyclopropoxybenzoic acid] | 0.01 to 316 nM | 10000 to 20000 nM | 4.12 to 9.23 h
13 | O=C(O)c1ccc(N(Cc2cc(C3CC3)cc(C3CC3)c2)C(=O)CN(Cc2c(F)cc(F)cc2F)S(=O)(=O)c2c(F)c(F)c(F)c(F)c2F)c(OC2CC2)c1 [Compound 1178, 3-cyclopropoxy-4-(N-(3,5-dicyclopropylbenzyl)-2-(N-(2,4,6-trifluorobenzyl)-(2,3,4,5,6-pentafluoro-phenyl)sulfonamido)acetamido)benzoic acid] | 0.01 to 316 nM | 10000 to 20000 nM | 4.12 to 9.23 h
14 | O=C(O)c1ccc(N(Cc2cc(C3CC3)cc(C3CC3)c2)C(=O)CN(Cc2c(F)c(F)c(F)c(F)c2F)S(=O)(=O)c2c(F)c(F)c(F)c(F)c2F)c(OC2CC2)c1 [Compound 1183, 3-cyclopropoxy-4-(N-(3,5-dicyclopropylbenzyl)-2-(N-((perfluorophenyl)methyl)-(2,3,4,5,6-pentafluoro-phenyl)sulfonamido)acetamido)benzoic acid] | 0.01 to 316 nM | 1 to 10000 nM | 9.23 to 1670 h
15 | CC(C)(C)c1cc(CN(C(=O)CN(Cc2cnccc2C(F)(F)F)S(=O)(=O)c2c(F)c(F)c(F)c(F)c2F)c2ccc(C(=O)O)cc2C2CC2)cc(C2CC2)c1 [Compound 1186, 4-(N-(3-(tert-butyl)-5-cyclopropylbenzyl)-2-(N-((4-(trifluoromethyl)pyridin-3-yl)methyl)-(2,3,4,5,6-pentafluoro-phenyl)sulfonamido)acetamido)-3-cyclopropylbenzoic acid] | 0.01 to 316 nM | 1 to 10000 nM | 2.37 to 4.12 h
16 | CC(C)(C)c1cc(CN(C(=O)CN(Cc2ccc(F)cc2Cl)S(=O)(=O)c2c(F)c(F)c(F)c(F)c2F)c2ccc(C(=O)O)cc2OC2CC2)cc(C2CC2)c1 [Compound 1189, 4-(N-(3-(tert-butyl)-5-cyclopropylbenzyl)-2-(N-(2-chloro-4-fluorobenzyl)-(2,3,4,5,6-pentafluorophenyl)sulfon-amido)acetamido)-3-cyclopropoxybenzoic acid] | 0.01 to 316 nM | 10000 to 20000 nM | 9.23 to 1670 h
17 | O=C(O)c1ccc(N(Cc2cc(C3CC3)cc(N3CCCC3)c2)C(=O)CN(Cc2c(F)cc(F)cc2F)S(=O)(=O)c2c(F)c(F)c(F)c(F)c2F)c(OC2CC2)c1 [Compound 1191, 3-cyclopropoxy-4-(N-(3-cyclopropyl-5-(pyrrolidin-1-yl)benzyl)-2-(N-(2,4,6-trifluorobenzyl)-(2,3,4,5,6-pentafluoro-phenyl)sulfonamido)acetamido)benzoic acid] | 316 to 1000 nM | 1 to 10000 nM | 9.23 to 1670 h
18 | O=C(O)c1ccc(N(Cc2cc(C3CC3)cc(N3CCCC3)c2)C(=O)CN(Cc2ccc(F)cc2Cl)S(=O)(=O)c2c(F)c(F)c(F)c(F)c2F)c(OC2CC2)c1 [Compound 1192, 4-(2-(N-(2-chloro-4-fluorobenzyl)-(2,3,4,5,6-pentafluorophenyl)sulfon-amido)-N-(3-cyclopropyl-5-(pyrrolidin-1-yl)benzyl)acetamido)-3-cyclopropoxybenzoic acid] | 316 to 1000 nM | 10000 to 20000 nM | 9.23 to 1670 h
